Source: US9725460B2, “Oridonin analogs, compositions, and methods related thereto” (THE BOARD OF REGENTS OF THE UNIVERSITY OF TEXAS SYSTEM, priority 2013, dated 2017)
Read-outs that look alike come from different tables or passages of the source.

Experiments:
MCF-7 = assay: MTT cancer cell proliferation assay, MCF-7; assay type: cell-based, human
Description: (§1) In Vitro Determination of Effects of Synthesized Diterpenoids on Cancer Cell Proliferation. Breast cancer cell lines MCF-7, MDA-MB-231, […] and MCF/ADR were seeded in 96-well plates at a density of 1×10^4 cells/well and treated with DMSO and 0.01, 0.1, 1, 5, 10, and 100 μM of individual compound for 48 h, and then 20 μL of 3-(4,5-dimethylthiazol-2-yl)-2,5-diphenyltetrazolium bromide (MTT) (5 mg/mL in PBS) was added to each well and further incubated for another 4 h. Then MTT solution was removed, and 150 μL of DMSO was added to each well. Absorbance of all wells was determined by measuring OD at 550 nm after a 10 min incubation on a 96-well GlowMaxate absorbance reader (Promega, Madison, Wis.). Each individual compound was tested in quadruplicate wells for each concentration.
(§2) The growth inhibitory effects of the newly generated pyran-fused diterpenoids were evaluated in four breast cancer cell lines MCF-7 (ER-positive), MDAMB-231 (ER-negative and triple-negative), MDA-MB-468 (ER-negative and triple-negative) as well as MCF-7/ADR (adriamycin-resistant) using MTT assays as described in the Experimental Section.

DU145 = assay: Cancer cell proliferation assay, DU145; assay type: cell-based; conditions: Homo sapiens, DU-145
MDA-MB-231 = assay: MTT cancer cell proliferation assay, MDA-MB-231; assay type: cell-based, human
Description: as §1, §2

Panc-1 = assay: Cancer cell proliferation assay, Panc-1; assay type: cell-based; conditions: Homo sapiens, PANC-1
Description: (§3) In Vitro Determination of Effects of Synthesized Diterpenoids on Cancer Cell Proliferation. […] Then MTT solution was removed, and 150 μL of DMSO was added to each well. Absorbance of all wells was determined by measuring OD at 550 nm after a 10 min incubation on a 96-well GlowMaxate absorbance reader (Promega, Madison, Wis.). Each individual compound was tested in quadruplicate wells for each concentration.

AsPC1 = assay: Cancer cell proliferation assay, AsPC1; assay type: cell-based; conditions: Homo sapiens, ASPC1
Description: as §3

MCF-7/ADR = assay: MTT growth inhibition, drug-resistant MCF-7/ADR; assay type: cell-based, human; conditions: Table 3, adriamycin-resistant, MTT 48 h, mean ± SE of three experiments
Description: as §1
as §2, with “Section. The capability of these new molecules to inhibit the growth of cancer cells was summarized in Table 3 and compared with that of adriamycin and 1 spontaneously.” for “Section.”

MDA-MB-468 = assay: MTT cancer cell proliferation assay, MDA-MB-468; assay type: cell-based, human; conditions: Table 3, pyran-fused diterpenoids, MTT 48 h, mean ± SE of three experiments
Description: as §1
as §2, with “Section. The capability of these new molecules to inhibit the growth of cancer cells was summarized in Table 3 and compared with that of adriamycin and 1 spontaneously.” for “Section.”

[1] = Homo sapiens, MCF7, Table 1a, breast cancer, read-out: IC50 (μM) MCF-7
[2] = Homo sapiens, MCF7, Table 2b, mean of at least three experiments, read-out: Effect on proliferation MCF-7 (ER positive) (IC50)
[3] = Table 1a, prostate cancer, read-out: IC50 (μM) DU145
[4] = Table 2b, mean of at least three experiments, read-out: Effect on proliferation DU145 (IC50)
[5] = Homo sapiens, MDA-MB-231, Table 1a, breast cancer, read-out: IC50 (μM) MDA-MB-231
[6] = Homo sapiens, MDA-MB-231, Table 2b, mean of at least three experiments, read-out: Effect on proliferation MDA-MB-231 (ER negative) (IC50)
[7] = Table 1a, pancreatic cancer, read-out: IC50 (μM) Panc-1
[8] = Table 2b, mean of at least three experiments, read-out: Effect on proliferation Panc-1 (IC50)
[9] = Table 1a, pancreatic cancer, read-out: IC50 (μM) AsPC1
[10] = Table 2b, mean of at least three experiments, read-out: Effect on proliferation AsPC1 (IC50)
[11] = Homo sapiens, MCF7, 48 h, Table 3, pyran-fused diterpenoids, MTT 48 h, mean ± SE of three experiments, read-out: IC50 (μM) MCF-7
[12] = Homo sapiens, MDA-MB-231, 48 h, Table 3, pyran-fused diterpenoids, MTT 48 h, mean ± SE of three experiments, read-out: IC50 (μM) MDA-MB-231
[13] = Homo sapiens, NCI/ADR-RES, 48 h
[14] = Table 3, pyran-fused diterpenoids, MTT 48 h, mean ± SE of three experiments, read-out: IC50 (μM) MCF-7
[15] = Table 3, pyran-fused diterpenoids, MTT 48 h, mean ± SE of three experiments, read-out: IC50 (μM) MDA-MB-231

Compound	IC50 (MCF-7; [11]) [µM]	IC50 (MDA-MB-231; [12]) [µM]	IC50 (MCF-7/ADR; [13]) [µM]	IC50 (MDA-MB-468; Homo sapiens, MDA-MB-468, 48 h) [µM]	further results
C=C1C(=O)[C@@]23C(CC[C@H]1[C@H]2O)[C@@]12CO[C@]3(O)[C@@H](O)C1C(C)(C)Cc1sc(N3CCCCCC3)nc12 (stereo partly drawn) [CYD-6-26-2, (6S,7S,7aR,10R,12bR,15R)-2-(azepan-1-yl)-6,7,15-trihydroxy-5,5-dimethyl-9-methylene-5,5a,6,7,10,11,12,12a-octahydro-4H-7,12b-(epoxymethano)-7a,10-methanocyclohepta[7,8]naphtho[1,2-d]thiazol-8(9H)-one]	–	–	–	–	IC50 (MCF-7; [1]): 1.15 µM; IC50 (MCF-7; [2]): 1.2 µM; IC50 (DU145; [3]): 4.74 µM; IC50 (DU145; [4]): 4.7 µM; IC50 (MDA-MB-231; [5]): 6.82 µM; IC50 (MDA-MB-231; [6]): 6.8 µM; IC50 (Panc-1; [7]): 6.29 µM; IC50 (Panc-1; [8]): 6.3 µM; IC50 (AsPC1; [9]): 2.3 µM; IC50 (AsPC1; [10]): 2.3 µM
C=C1C(=O)[C@@]23[C@@H]4OC(C)(C)O[C@@]25OC[C@]2(C6=C(CC[C@H](OCC)O6)CC(C)(C)[C@H]2[C@@H]5O)[C@@H]3CC[C@@H]14 [CYD-8-69-2]	2.41 ± 1.86	3.73 ± 0.28	6.79 ± 3.46	5.81 ± 1.92	–
C=C1C(=O)[C@]23[C@H](O)[C@H]1CC[C@H]2[C@@]12CO[C@@]3(O)[C@@H](O)[C@@H]1C(C)(C)CC1=C2O[C@@H](OCC)CC1 [CYD-8-50]	1.9 ± 0.97	3.32 ± 1.01	3.18 ± 0.89	2.24 ± 0.68	–
C=C1C(=O)[C@]23[C@H](O)[C@H]1CC[C@H]2[C@@]12CO[C@]3(O)[C@@H](O)[C@@H]1C(C)(C)Cc1sc(N)nc12 [CYD-5-41, (5aR,6S,7S,7aR,10S,12aS,12bR,15R)-2-amino-6,7,15-trihydroxy-5,5-dimethyl-9-methylene-5,5a,6,7,10,11,12,12a-octahydro-4H-7,12b-(epoxymethano)-7a,10-methanocyclohepta[7,8]naphtho[1,2-d]thiazol-8(9H)-one]	–	–	–	–	IC50 (MCF-7; [1]): 1.02 µM; IC50 (MCF-7; [2]): 1 µM; IC50 (DU145; [3]): 3.46 µM; IC50 (DU145; [4]): 3.5 µM; IC50 (MDA-MB-231; [5]): 3.24 µM; IC50 (MDA-MB-231; [6]): 3.2 µM; IC50 (Panc-1; [7]): 6.13 µM; IC50 (Panc-1; [8]): 6.1 µM; IC50 (AsPC1; [9]): 5.58 µM; IC50 (AsPC1; [10]): 5.6 µM
C=C1C(=O)[C@@]23C(CC[C@H]1[C@H]2O)[C@@]12CO[C@]3(O)[C@@H](O)C1C(C)(C)Cc1sc(NC(C)=O)nc12 (stereo partly drawn) [CYD-6-21, N-((6S,7S,7aR,10R,12bR,15R)-6,7,15-trihydroxy-5,5-dimethyl-9-methylene-8-oxo-5,5a,6,7,8,9,10,11,12,12a-decahydro-4H-7,12b-(epoxymethano)-7a,10-methanocyclohepta[7,8]naphtho[1,2-d]thiazol-2-yl)acetamide]	–	–	–	–	IC50 (MCF-7; [1]): 1.99 µM; IC50 (MCF-7; [2]): 2 µM; IC50 (DU145; [3]): 6.34 µM; IC50 (DU145; [4]): 6.3 µM; IC50 (MDA-MB-231; [5]): 6.82 µM; IC50 (MDA-MB-231; [6]): 6.8 µM; IC50 (Panc-1; [7]): 6.71 µM; IC50 (Panc-1; [8]): 6.7 µM; IC50 (AsPC1; [9]): 4.83 µM; IC50 (AsPC1; [10]): 4.8 µM
C=C1C(=O)[C@@]23[C@@H]4OC(C)(C)O[C@@]25OC[C@]2(C6=C(C[C@H]7CCCO[C@H]7O6)CC(C)(C)[C@H]2[C@@H]5O)[C@@H]3CC[C@@H]14 [CYD-8-74-2]	2.39 ± 0.78	2.53 ± 0.77	2.89 ± 0.32	3.33 ± 0.58	–
C=C1C(=O)[C@@]23[C@@H]4OC(C)(C)O[C@@]25OC[C@]2(C6=C(CC[C@H](OCC(C)C)O6)CC(C)(C)[C@H]2[C@@H]5O)[C@@H]3CC[C@@H]14 [CYD-8-52-1]	2.24 ± 1.33	1.76 ± 0.22	4.42 ± 0.9	2.62 ± 0.08	–
C=C1C(=O)[C@@]23[C@@H]4OC(C)(C)O[C@@]25OC[C@]2(C6=C(CC[C@@H](OCC)O6)CC(C)(C)[C@H]2[C@@H]5O)[C@@H]3CC[C@@H]14 [CYD-8-45-1]	–	–	–	–	IC50 (MCF-7; [14]): 3.52 ± 2.15 µM; IC50 (MDA-MB-231; [15]): 6.13 ± 2.43 µM; IC50 (MCF-7/ADR): 4.65 ± 3.15 µM; IC50 (MDA-MB-468): 5.4 ± 0.98 µM
C=CCO[C@@H]1CCC2=C(O1)[C@@]13CO[C@@]4(OC(C)(C)O[C@@H]5[C@H]6CC[C@@H]1[C@]54C(=O)C6=C)[C@@H](O)[C@@H]3C(C)(C)C2 [CYD-8-66-2]	2.1 ± 0.98	3.3 ± 0.23	3.19 ± 0.54	4.37 ± 1.48	–
C=C1C(=O)[C@@]23[C@@H]4OC(C)(C)O[C@@]25OC[C@]2(C6=C(CC[C@@H](OCC)O6)CC(C)(C)[C@H]2[C@@H]5O)[C@@H]3CC[C@@H]14 [CYD-8-45-2]	–	–	–	–	IC50 (MCF-7; [14]): 0.44 ± 0.27 µM; IC50 (MDA-MB-231; [15]): 0.54 ± 0.14 µM; IC50 (MCF-7/ADR): 1.64 ± 0.72 µM; IC50 (MDA-MB-468): 0.52 ± 0.18 µM
C=C1C(=O)[C@@]23[C@@H]4OC(C)(C)O[C@@]25OC[C@]2(C6=C(CC[C@@H](OCC(C)C)O6)CC(C)(C)[C@H]2[C@@H]5O)[C@@H]3CC[C@@H]14 [CYD-8-52-2]	5.83 ± 3.75	8.18 ± 0.57	10.3 ± 1.65	6.95 ± 1.01	–

Now from value to compound, other results behind:

IC50 (MCF-7; [11]) [µM]	IC50 (MDA-MB-231; [12]) [µM]	IC50 (MCF-7/ADR; [13]) [µM]	IC50 (MDA-MB-468; Homo sapiens, MDA-MB-468, 48 h) [µM]	Compound	further results
5.17 ± 2.9	5.89 ± 2.04	5.34 ± 1.29	5.96 ± 0.29	C=C1C(=O)[C@@]23[C@@H]4OC(C)(C)O[C@@]25OC[C@]2(C6=C(CC[C@@H](OCCCCO)O6)CC(C)(C)[C@H]2[C@@H]5O)[C@@H]3CC[C@@H]14 [CYD-8-67-2]	–
4.32 ± 1.82	7.12 ± 0.22	4.31 ± 2.43	4.89 ± 0.85	C=CCO[C@H]1CCC2=C(O1)[C@@]13CO[C@@]4(OC(C)(C)O[C@@H]5[C@H]6CC[C@@H]1[C@]54C(=O)C6=C)[C@@H](O)[C@@H]3C(C)(C)C2 [CYD-8-66-1]	–
2.41 ± 1.45	2.23 ± 0.39	3.8 ± 1.15	2.98 ± 0.67	C=C1C(=O)[C@@]23[C@@H]4OC(C)(C)OC25OC[C@]2(C6=C(CC[C@H](OCCCC)O6)CC(C)(C)[C@H]2[C@@H]5O)[C@@H]3CC[C@@H]14 [CYD-8-69-1]	–
2.31 ± 1.02	3.3 ± 1.81	3.08 ± 1.12	2.99 ± 1.01	C=C1C(=O)[C@@]23[C@@H]4OC(C)(C)O[C@@]25OC[C@]2(C6=C(CC[C@H](OCCCl)O6)CC(C)(C)[C@H]2[C@@H]5O)[C@@H]3CC[C@@H]14 [CYD-8-65-1]	–
2.3 ± 1.4	2.87 ± 0.54	3.82 ± 0.47	2.83 ± 0.42	C=C1C(=O)[C@@]23[C@@H]4OC(C)(C)O[C@@]25OC[C@]2(C6=C(CC[C@@H](SCC)O6)CC(C)(C)[C@H]2[C@@H]5O)[C@@H]3CC[C@@H]14 [CYD-8-84]	–
0.67 ± 0.45	2.33 ± 0.22	> 10	0.65 ± 0.26	COc1cccc2c1C(=O)c1c(O)c3c(c(O)c1C2=O)C[C@@](O)(C(=O)CO)C[C@@H]3O[C@H]1C[C@H](N)[C@H](O)[C@H](C)O1 [Adriamycin, reference compound]	–
6.76 ± 3.43	7.15 ± 1.27	8.74 ± 0.27	7.26 ± 0.23	C=C1C(=O)[C@@]23[C@@H]4OC(C)(C)O[C@@]25OC[C@]2(C6=C(CC[C@@H](OCCCl)O6)CC(C)(C)[C@H]2[C@@H]5O)[C@@H]3CC[C@@H]14 [CYD-8-65-2]	–
2.14 ± 1.11	3.18 ± 0.24	4.51 ± 1.54	2.65 ± 0.14	C=C1C(=O)[C@@]23[C@@H]4OC(C)(C)O[C@@]25OC[C@]2(C6=C(CC[C@H](OCCCCO)O6)CC(C)(C)[C@H]2[C@@H]5O)[C@@H]3CC[C@@H]14 [CYD-8-67-1]	–
